The experiment deals with croton oil-induced ear swelling. As to the kind of experiment: Croton oil-induced ear swelling. The format is in vivo, CD-1 female mice. The arrangement: Average ear thickness: unit not given beside the values. The note with it: for Average ear thickness: single oral dose 10 mg/kg 60 min before. The method, then:
The effects of NK, PRED and the vehicle (5% PEG in water) were tested orally in CD-1 female mice. Under the test protocol, 20 μl of 1.0% croton oil in acetone was applied topically to both ears of three groups of mice, each group consisting of 6 mice. No attempt was made to remove the croton oil solution since the solvent evaporated within 30 seconds. The oral doses of NK and PRED were 10 mg/kg (10 ml/kg) bodyweight for both compounds and were administered 60 min before the croton oil applications. Vehicle-treated mice were dosed 10 ml/kg of water, containing 5% polyethylene glycol (PEG), which was also the solvent for the test articles. Ear thickness was measured with an electronic caliper and mean ear thickness (N=12; right+left ears) were calculated and compared with the thickness of ears from vehicle-treated mice (Student's t-test).

Take `O=C1Cc2ccccc2C(=C2CCNCC2)c2ccsc21` (racemic) [norketotifen]: the Average ear thickness stood at 0.21 ± 0.02 (0 (predose) min after croton oil, vehicle 0.21 ± 0.02); 0.24 ± 0.02 (90 min after croton oil, vehicle 0.29 ± 0.04); 0.25 ± 0.02 (120 min after croton oil, vehicle 0.28 ± 0.02). Also, the “Anti-inflammatory effect compared with vehicle control group (conclusion in words)” value (single oral dose 10 mg/kg, croton oil ear swelling in mice) was “statistically significant anti-inflammatory effects”.

Values taken from patent publication US10959992B2, “Methods of treatment of asthma and COPD” (Bridge Pharma, Inc., priority 2019, dated 2021).
